The experiment has as its system GEMIN6. Briefly: AP-MS chemical proteomics, GEMIN6. The format is binding, human. On the procedure:
The samples for AP-MS were prepared following pulldown procedure as previously described with minor modifications. Briefly, U2OS cells were lysed in RIPA buffer and the cell lysate was equally divided into two groups: (1) DMSO group (control group): the cell lysate was incubated with 20 μM biotin-labeled compound 1; (2) Cpmd 1 group (sample group): the cell lysate was incubated with 20 μM biotin-labeled compound 1 and 200 μM free compound 1. Each group contains three biological replicates. They were incubated overnight at 4 °C, then 30 μL streptavidin beads (Thermo Fisher, 20353) was added and incubated at 4 °C for 1 h. The beads were then washed with RIPA buffer for 3 times, 10 min/time. […]
Samples were analyzed by nanoLC-MS/MS (nanoRSLC, Thermo Fisher) using an Aurora series (Ion Opticks) reversed phase HPLC column (25 cm length × 75 µm inner diameter) and directly injected to an Orbitrap Eclipse (Thermo Fisher) using a 120 min gradient (mobile phase A = 0.1% formic acid, mobile phase B = 99.9% acetonitrile with 0.1% formic acid; hold 2% B for 5 min, 2–6% B in 0.1 min, 6–25% in 100 min, 25–50% in 15 min) at a flow rate of 350 nL/min. Eluted peptide ions were analyzed using a data-dependent acquisition (DDA) method with resolution settings of 120,000 and 15,000 (at m/z 200) for MS1 and MS2 scans, respectively. […]

The structures appear in SMILES notation.

`Cn1c2c(c(=N)c3c1CCC3)CCC2` [Compound 1, 4-methyl-2,3,4,5,6,7-hexahydrodicyclopenta[b,e]pyridin-8(1H)-imine]: the Difference (GN=GEMIN6 (Q8WXD5), Cmpd minus DMSO, -LOG(P-value) 2.19893) was -5.406. In addition, under “biotin-Cmpd 1 pulldown, competition with 200 μM compound 1 relative to DMSO, U2OS lysate”, the “log2 FC (Cmpd 1/DMSO), GEMIN6” value is −5.4.

Source of the values: publication PMC9481570, “A small molecule antagonist of SMN disrupts the interaction between SMN and RNAP II” (Nature Communications, 2022).
